Source: patent US8754190B2, “Controlled release from macromolecular conjugates” (Prolynx LLC, priority 2010, dated 2014)

How the values were obtained:
[1] = pH 7.4
[2] = Release of Nε-2,4-dinitrophenyl-L-lysine from model linker carbamates (β-eliminative cleavage), HPLC; type: physicochemical; details: after 5 days at 37° C. and pH 7.4; no observable release, below estimated detection limit
Method: A series of model linker scaffolds having a range of functional groups as potential pKa modulators (substituted aromatics, ketones, nitriles, sulfones) were designed, prepared and linked via carbamate bonds to Ne-2,4-dinitrophenyl-L-lysine (Ne-DNP-Lys) for evaluation of release rates. DNP-Lys was chosen as the released moiety as it is water soluble and is a strong chromophore to permit HPLC-UV analysis.
The rates of release of Nε-2,4-dinitrophenyl-L-lysine from these compounds were determined at pH 7.4 or pH 8.3, 37° C., by HPLC analysis. Kinetic analyses of the release reactions were performed by HPLC (C18; linear methanol/water+0.5% HOAc gradient) using a UV/vis monitor at 350 nm. The areas under the Lys(DNP) (“P”) and starting material (“S”) peaks were integrated to determine extent of reaction (“R”) as R=P/(S+P). Reaction rates were calculated from the slope the line obtained by linear regression analysis of a plot of ln(1−R) versus time.

[3] = Hydrolysis of carbamate in 50% human serum; type: in vitro ADME; details: after 1 week at 37° C.
Description: In general, compared to C—H, a) electron withdrawing groups at the beta position increase the rate; b) alkyl groups at the alpha position increase the rate; and c) aryl moieties at the alpha position decrease the rate.

[4] = pH 7.4; remark: listed apart in the source
Method: Kinetics for release of N-(6-(2,4-dinitrophenyl)aminohexanoyl)-serine from O—(N-(9-fluorenylmethoxycarbonyl-N-phenyl)aminomethyl)-serine in 0.1 M HEPES buffer, 15 mM NaCl, pH 7.40, 37° C. are shown in FIG. 4.

O=C(O)[C@H](CSCN(C(=O)OCC1c2ccccc2-c2ccccc21)c1ccccc1)Nc1ccc([N+](=O)[O-])cc1[N+](=O)[O-] [Example 11C, S—(N-(9-Fluorenylmethoxycarbonyl-N-Phenylamino)Methyl)N-(2,4-Dinitrophenyl)-Cysteine]
T1/2 of release of N-(2,4-dinitrophenyl)-cysteine [1]: 4.17 days

O=C(N[C@@H](CCCCNc1ccc([N+](=O)[O-])cc1[N+](=O)[O-])C(=O)O)OCc1ccccc1 [O-benzyl-N—(Nε-2,4-dinitrophenyl-L-lysine)-carbamate]
release of Nε-2,4-dinitrophenyl-L-lysine (cleavage) [2]: < 0.25%
hydrolysis in 50% human serum [3]: no detectable hydrolysis

O=C(CCCCCNc1ccc([N+](=O)[O-])cc1[N+](=O)[O-])N[C@@H](COCN(C(=O)OCC1c2ccccc2-c2ccccc21)c1ccccc1)C(=O)O [Example 11B]
T1/2 of release of N-(6-(2,4-dinitrophenyl)aminohexanoyl)-serine [4]: 16.7 days
